What is called melting point is the temperature, or range, at which the solid turns liquid.

Compound `Cc1cc(Nc2ccnc(Nc3ccc(C(=O)N(C)C4CCCN(CCCC(F)(F)F)C4)cc3)n2)ccc1F` (centres unmarked) [Example 2, 4-[4-(4-Fluoro-3-methylphenylamino)pyrimidin-2-ylamino]-N-methyl-N-[1-(4,4,4-trifluorobutyl)piperidin-3-yl]benzamide] had a melting point of 100 to 110 °C. Consider `Cc1cc(Nc2ccnc(Nc3ccc(C(=O)N(C)C4CCCN(Cc5csnn5)C4)cc3)n2)ccc1F` (centres unmarked) [Example 3, 4-[4-(4-Fluoro-3-methylphenylamino)pyrimidin-2-ylamino]-N-methyl-N-[1-(1,2,3-thiadiazol-4-ylmethyl)piperidin-3-yl]benzamide], for which the melting point was in the range of 125 to 130 °C. In turn, `CN1CCC(N(C)C(=O)c2ccc(Nc3nccc(Nc4ccc(C(F)(F)F)cc4)n3)cc2)CC1` [Example 4, N-Methyl-N-(1-methylpiperidin-4-yl)-4-[4-(4-(trifluoromethyl)phenylamino)pyrimidin-2-ylamino]benzamide] displayed a melting point of 238 to 244 °C. `CN(C(=O)c1ccc(Nc2nccc(Nc3ccc(C(F)(F)F)cc3)n2)cc1)C1CCOCC1` [Example 5, N-Methyl-N-(tetrahydropyran-4-yl)-4-[4-(4-(trifluoromethyl)phenylamino)pyrimidin-2-ylamino]benzamide]: the melting point is 254 to 256 °C.

Compound `CN(C(=O)c1ccc(Nc2nccc(Nc3ccc(F)cc3)n2)cc1)C1CCN2CCCC2C1` (centres unmarked) [Example 7] gave a melting point of 230 to 235 °C.

These data come from patent US20100035907A1, “NEW 2,4-DIANILINOPYRIMIDINES, PREPARATION THEREOF AS DRUGS, PHARMACEUTICAL COMPOSITIONS AND USE THEREOF ESSENTIALLY AS IKK INHIBITORS” (Sanofi-aventis, priority 2007, published 2010).
